Experimental data reported in ChEMBL document CHEMBL1201862, “PubChem BioAssay data set” (2004).
Active and inactive are the calls of the source.

Tests used:
[1] = HPDE-C7 pancreatic duct cell viability loss – fluorescence, HTS (AID 430); format: functional, cell-based; conditions: Homo sapiens
[2] = viability loss of HPDE-C7K cells – cell-based, fluorescence, HTS, primary screen (AID 431); format: functional; conditions: Homo sapiens
[3] = Luminescence Cell-Based Dose Retest to Confirm Inhibitors of Cancer Stem Cells. [Related pubchem assays (depositor defined):AID2717, AID2721]; format: functional, Homo sapiens; conditions: Homo sapiens
[4] = molecular target: T1, Streptokinase A (Streptococcus pyogenes serotype M1, UniProt P10520); test: viability-normalized secreted streptokinase activity reduction – plasminogen activation absorbance, OD405, dose response (AID 1914); format: functional, Streptococcus pyogenes M1 GAS;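 further: secreted streptokinase activity via plasminogen activation per viability signal from cell pellet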
T1 sequence (P10520 whole entry): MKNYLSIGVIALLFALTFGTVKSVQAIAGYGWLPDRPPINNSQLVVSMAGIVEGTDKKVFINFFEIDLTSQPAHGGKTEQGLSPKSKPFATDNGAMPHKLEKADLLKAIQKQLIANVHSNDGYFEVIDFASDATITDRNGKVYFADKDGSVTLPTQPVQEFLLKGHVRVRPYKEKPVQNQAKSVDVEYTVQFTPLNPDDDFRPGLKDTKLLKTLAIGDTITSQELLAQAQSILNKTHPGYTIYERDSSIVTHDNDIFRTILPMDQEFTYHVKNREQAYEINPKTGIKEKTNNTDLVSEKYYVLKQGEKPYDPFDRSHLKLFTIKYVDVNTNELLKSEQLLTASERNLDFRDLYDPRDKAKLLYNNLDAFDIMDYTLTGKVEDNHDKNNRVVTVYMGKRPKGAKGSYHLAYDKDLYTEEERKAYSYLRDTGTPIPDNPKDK

[5] = test system: Streptococcus; test: GAS UMAA2166 growth inhibition – luminescence, BacTiterGlo, counter-screen for streptokinase expression inhibitor project, dose response (AID 1915); format: functional, organism-based;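 further: potency for reduction of bacterial viability or growth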
[6] = test system: Streptococcus sp. 'group A'; test: Streptococcus pyogenes SK(-)GAS viability under kanamycin – luminescence, BacTiterGlo, confirmation, counter-screen for streptokinase expression inhibitor project, dose response (AID 1900); format: functional, organism-based
[7] = HIV-1 Vif–A3G interaction blockers – biochemical, TR-FRET, GST-Vif 1-94, biotin-A3G peptide, dose response retest, primary screen (AID 1117319); format: functional;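 further: TR-FRET signal of purified GST-Vif binding a biotinylated A3G peptide; inhibitors lower the FRET signal by blocking Vif and A3G binding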
[8] = molecular target: T2, Calpain-2 catalytic subunit (Sus scrofa, UniProt P43367); test: m-calpain protease blockers, concentration series – biochemical, fluorogenic peptide substrate, dose response (AID 1420); format: functional
T2 sequence (P43367 whole entry): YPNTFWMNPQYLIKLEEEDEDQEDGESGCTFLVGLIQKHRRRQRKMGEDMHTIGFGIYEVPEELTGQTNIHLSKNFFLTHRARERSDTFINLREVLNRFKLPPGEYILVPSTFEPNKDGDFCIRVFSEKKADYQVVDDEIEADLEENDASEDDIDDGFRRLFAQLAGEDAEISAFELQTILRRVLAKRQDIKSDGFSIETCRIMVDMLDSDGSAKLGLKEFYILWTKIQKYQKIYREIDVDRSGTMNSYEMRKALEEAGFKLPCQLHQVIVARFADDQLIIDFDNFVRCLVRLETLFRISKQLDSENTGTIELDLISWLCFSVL

[9] = test system: H9c2; test: cells; format: functional, cell-based; conditions: Rattus norvegicus, H9c2, Myocardium;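 further: confirmatory concentration-response retest of ultra-high-throughput screening hits for modulation of myocardial damage; cell death induced by hydrogen peroxide oxidative stress; compound pretreatment for 60 min then peroxide exposure for 2 h; potency is for protecting the cells against peroxide damage rather than for killing them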
[10] = molecular target: Heat shock protein HSP 90-alpha (Homo sapiens, UniProt P07900); format: functional, organism-based
[11] = molecular target: T3, Protein RecA (Mycobacterium tuberculosis, UniProt P9WHJ3); test: Fluorescence Cell-Free Homogeneous Dose Retest to Identify Inhibitors of RecA-Intein Splicing Activity. [Related pubchem assays (depositor defined):AID2097, AID2223, AID489010, AID492950]; format: functional
T3 sequence (P9WHJ3 whole entry): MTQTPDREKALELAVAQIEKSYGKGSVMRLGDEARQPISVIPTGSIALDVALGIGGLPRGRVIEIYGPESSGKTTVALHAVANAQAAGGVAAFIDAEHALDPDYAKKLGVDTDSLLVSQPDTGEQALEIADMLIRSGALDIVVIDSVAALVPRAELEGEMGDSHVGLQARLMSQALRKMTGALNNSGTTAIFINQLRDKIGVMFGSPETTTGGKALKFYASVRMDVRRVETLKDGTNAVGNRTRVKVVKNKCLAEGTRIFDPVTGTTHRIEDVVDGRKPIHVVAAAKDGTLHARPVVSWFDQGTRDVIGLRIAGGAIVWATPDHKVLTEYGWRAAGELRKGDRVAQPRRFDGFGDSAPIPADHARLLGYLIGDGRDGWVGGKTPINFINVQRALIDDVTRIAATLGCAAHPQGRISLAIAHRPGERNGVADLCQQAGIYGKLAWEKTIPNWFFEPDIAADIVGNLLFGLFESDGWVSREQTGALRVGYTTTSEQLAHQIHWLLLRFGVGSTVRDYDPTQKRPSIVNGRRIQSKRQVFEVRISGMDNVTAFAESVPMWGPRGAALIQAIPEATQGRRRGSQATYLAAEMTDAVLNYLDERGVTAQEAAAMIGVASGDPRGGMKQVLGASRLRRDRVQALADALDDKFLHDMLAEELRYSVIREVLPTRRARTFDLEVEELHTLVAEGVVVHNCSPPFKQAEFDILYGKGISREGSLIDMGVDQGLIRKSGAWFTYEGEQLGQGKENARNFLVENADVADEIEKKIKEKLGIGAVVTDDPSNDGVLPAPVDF

[12] = molecular target: T4, Replicative DNA helicase DnaB (Mycobacterium tuberculosis, UniProt P9WMR3); test: DnaB intein splicing inhibitors, dose response, biochemical, cell-free fluorescence (AID 449749); format: functional
T4 sequence (P9WMR3 whole entry): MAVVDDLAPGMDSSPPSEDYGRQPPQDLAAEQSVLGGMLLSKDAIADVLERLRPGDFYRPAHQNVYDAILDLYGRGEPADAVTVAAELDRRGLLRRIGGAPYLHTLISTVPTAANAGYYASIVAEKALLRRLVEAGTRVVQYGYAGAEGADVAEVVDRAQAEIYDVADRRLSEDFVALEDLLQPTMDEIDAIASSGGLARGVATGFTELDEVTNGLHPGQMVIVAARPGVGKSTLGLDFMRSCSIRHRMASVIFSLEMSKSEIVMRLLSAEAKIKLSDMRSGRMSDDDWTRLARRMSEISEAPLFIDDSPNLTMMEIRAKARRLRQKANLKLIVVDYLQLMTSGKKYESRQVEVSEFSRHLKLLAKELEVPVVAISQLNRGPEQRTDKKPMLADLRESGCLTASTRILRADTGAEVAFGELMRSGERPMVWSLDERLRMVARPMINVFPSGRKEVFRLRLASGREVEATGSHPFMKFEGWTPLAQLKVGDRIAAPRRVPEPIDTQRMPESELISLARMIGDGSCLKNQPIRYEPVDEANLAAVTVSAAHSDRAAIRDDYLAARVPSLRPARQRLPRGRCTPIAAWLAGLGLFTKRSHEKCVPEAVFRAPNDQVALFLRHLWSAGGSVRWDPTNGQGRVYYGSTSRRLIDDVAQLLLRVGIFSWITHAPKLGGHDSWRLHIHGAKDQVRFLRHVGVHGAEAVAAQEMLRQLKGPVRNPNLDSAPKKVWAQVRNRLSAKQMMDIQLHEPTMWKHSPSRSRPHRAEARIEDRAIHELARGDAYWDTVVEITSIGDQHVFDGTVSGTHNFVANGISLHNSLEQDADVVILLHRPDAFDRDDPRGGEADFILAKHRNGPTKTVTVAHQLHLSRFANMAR

[13] = Luminescence Cell-Based Dose Response HTS to Identify Activators of Luciferase Translation or Activity in H4 […] Cells. [Related pubchem assays: 1829 (Project Summary), 1814 (Primary HTS)]; format: functional
[14] = Trypanosoma cruzi growth suppression in host cells – NIH3T3 host cells, beta-gal luminescence, confirmation (AID 2044); format: functional, cell-based;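 further: intracellular parasites grown in NIH/3T3 mouse fibroblasts as host cells; luminescent beta-galactosidase reporter signal from transgenic T. cruzi replicating inside host cells; inhibitors lower the luminescence signal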
[15] = NIH3T3 cell viability loss – ATP luminescence, mouse fibroblasts, counter-screen, dose response (AID 2010); format: functional, cell-based;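 further: cells exposed to compound for about 90 hours before reading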
[16] = molecular target: T5, DNA repair protein RAD52 homolog (Homo sapiens, UniProt P43351); format: functional, biochemical
T5 sequence (P43351 whole entry): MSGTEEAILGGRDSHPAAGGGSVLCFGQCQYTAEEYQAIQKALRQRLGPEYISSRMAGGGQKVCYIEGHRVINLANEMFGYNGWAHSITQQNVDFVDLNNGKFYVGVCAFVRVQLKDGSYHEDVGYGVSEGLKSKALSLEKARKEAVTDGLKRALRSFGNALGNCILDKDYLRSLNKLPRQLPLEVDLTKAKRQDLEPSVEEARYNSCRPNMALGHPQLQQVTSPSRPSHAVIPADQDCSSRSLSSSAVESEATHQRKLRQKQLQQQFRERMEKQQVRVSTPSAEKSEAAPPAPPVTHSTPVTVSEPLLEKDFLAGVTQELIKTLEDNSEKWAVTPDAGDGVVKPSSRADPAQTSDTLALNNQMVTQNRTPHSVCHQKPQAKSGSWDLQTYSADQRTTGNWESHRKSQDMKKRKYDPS

[17] = molecular target: T6, Fatty acid synthase (Homo sapiens, UniProt P49327); test: inhibition of human FAS-TE enzyme activity – biochemical, endpoint fluorescence intensity, uHTS hits, dose response (AID 624327); format: functional;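 further: fluorescence from hydrolysis of an O-methyl fluorescein acyl ester substrate by the enzyme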
[18] = molecular target: T6, Fatty acid synthase; test: inhibition of human FAS-TE enzyme activity – biochemical, kinetic fluorescence intensity, dose response (AID 624326); format: functional;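 further: rate of fluorescence rise from hydrolysis of a fluorogenic O-methyl fluorescein ester substrate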
[19] = HIV-1 AD8 envelope cell-cell fusion blockers – cherry-pick, dose response (AID 652062); format: functional, cell-based;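 further: luciferase signal from cell-cell fusion driven by HIV-1 clade B AD8 Env; potency is for inhibitors of fusion seen as a drop in luminescence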
[20] = blockers of HIV-1 envelope-mediated cell-cell fusion – cherry-pick, dose response (AID 652057); format: functional, cell-based
[21] = test system: SN12K1; test: cells; format: functional; conditions: Homo sapiens

T6 sequence (P49327 whole entry): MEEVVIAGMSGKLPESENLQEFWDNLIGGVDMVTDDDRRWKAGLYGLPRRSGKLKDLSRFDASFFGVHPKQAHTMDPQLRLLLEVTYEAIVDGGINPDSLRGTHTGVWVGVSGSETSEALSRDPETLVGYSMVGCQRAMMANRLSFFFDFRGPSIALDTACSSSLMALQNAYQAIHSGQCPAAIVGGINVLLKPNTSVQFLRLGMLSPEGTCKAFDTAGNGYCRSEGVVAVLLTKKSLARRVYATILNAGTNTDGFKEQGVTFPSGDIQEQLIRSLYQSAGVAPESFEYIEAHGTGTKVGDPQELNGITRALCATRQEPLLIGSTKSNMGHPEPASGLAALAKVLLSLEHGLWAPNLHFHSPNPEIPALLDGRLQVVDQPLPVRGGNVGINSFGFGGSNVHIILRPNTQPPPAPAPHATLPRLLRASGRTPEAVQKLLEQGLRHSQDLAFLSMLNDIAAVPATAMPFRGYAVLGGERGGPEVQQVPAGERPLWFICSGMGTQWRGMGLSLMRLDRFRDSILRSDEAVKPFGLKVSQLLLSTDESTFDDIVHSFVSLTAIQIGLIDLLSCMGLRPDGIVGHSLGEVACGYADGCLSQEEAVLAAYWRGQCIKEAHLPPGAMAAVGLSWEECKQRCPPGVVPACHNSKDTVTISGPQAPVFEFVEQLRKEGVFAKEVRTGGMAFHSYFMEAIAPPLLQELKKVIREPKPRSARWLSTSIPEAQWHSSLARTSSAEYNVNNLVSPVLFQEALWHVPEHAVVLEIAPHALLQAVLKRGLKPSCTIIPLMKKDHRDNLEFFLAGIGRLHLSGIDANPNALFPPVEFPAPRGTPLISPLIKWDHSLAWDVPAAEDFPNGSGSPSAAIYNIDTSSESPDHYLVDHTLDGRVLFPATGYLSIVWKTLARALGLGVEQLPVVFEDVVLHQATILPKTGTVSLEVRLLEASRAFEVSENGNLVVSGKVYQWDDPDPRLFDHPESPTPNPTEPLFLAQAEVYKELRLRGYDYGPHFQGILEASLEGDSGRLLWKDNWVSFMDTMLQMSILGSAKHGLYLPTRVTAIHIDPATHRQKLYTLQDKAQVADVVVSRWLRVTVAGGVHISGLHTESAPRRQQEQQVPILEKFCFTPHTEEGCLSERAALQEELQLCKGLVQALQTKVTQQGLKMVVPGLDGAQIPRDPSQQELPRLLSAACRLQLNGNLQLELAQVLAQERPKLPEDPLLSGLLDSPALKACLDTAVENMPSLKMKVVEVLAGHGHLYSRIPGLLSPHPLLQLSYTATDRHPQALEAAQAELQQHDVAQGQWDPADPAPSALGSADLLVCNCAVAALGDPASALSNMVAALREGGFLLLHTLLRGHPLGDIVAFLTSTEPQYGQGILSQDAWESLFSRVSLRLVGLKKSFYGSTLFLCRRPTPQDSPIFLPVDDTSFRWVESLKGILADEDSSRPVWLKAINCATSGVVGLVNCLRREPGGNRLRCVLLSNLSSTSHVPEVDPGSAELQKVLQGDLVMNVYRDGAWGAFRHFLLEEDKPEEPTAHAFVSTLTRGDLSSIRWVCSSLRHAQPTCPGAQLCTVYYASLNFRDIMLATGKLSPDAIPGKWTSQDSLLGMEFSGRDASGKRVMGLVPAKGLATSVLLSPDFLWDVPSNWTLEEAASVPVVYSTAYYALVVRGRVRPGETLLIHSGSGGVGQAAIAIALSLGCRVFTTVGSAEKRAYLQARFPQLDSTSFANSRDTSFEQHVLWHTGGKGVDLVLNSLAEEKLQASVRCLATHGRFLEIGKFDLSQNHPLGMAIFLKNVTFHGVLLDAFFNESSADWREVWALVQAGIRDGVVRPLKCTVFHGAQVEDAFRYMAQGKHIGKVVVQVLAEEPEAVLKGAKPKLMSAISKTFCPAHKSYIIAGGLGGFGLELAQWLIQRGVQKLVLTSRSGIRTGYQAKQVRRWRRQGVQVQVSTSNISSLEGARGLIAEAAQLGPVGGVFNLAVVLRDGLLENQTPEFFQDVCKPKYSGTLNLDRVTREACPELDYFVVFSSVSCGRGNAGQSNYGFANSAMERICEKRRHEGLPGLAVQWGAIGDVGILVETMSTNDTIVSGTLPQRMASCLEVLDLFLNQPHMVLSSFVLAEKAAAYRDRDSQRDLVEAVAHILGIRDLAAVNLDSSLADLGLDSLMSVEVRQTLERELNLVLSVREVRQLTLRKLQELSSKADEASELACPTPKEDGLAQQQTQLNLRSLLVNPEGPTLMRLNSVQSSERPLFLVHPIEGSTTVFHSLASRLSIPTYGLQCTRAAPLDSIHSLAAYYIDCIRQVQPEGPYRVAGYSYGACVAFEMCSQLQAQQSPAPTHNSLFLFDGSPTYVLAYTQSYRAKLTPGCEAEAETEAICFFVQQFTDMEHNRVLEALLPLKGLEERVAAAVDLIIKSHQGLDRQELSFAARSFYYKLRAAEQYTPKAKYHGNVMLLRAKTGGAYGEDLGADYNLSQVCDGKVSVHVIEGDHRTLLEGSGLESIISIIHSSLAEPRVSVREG

## O=C1Nc2cc(Cl)ccc2C1(N1CCNCC1)C(F)(F)F (stereo not given)
[1]
  EC50: > 20 µM (not active)
[2]
  EC50: > 20 µM (not active)

## Cc1cccc(N2CCN(C(=O)c3cc4n(n3)C(C(F)(F)F)CC(c3ccco3)N4)CC2)c1C (stereo not given)
[1]
  EC50: > 20 µM (not active)
[3]
  AC50: 1.84 µM (active)
[4]
  EC50: 16.7 µM (active)
[5]
  EC50: 29.1 µM (active)
[6]
  EC50: 3.02 µM (active)
[2]
  EC50: > 20 µM (not active)

## Nc1c(C(=O)NCCc2ccccc2)c2nc3ccccc3nc2n1CCN1CCOCC1
[1]
  EC50: 9.43 µM (active)
[2]
  EC50: 10.4 µM (active)

## Clc1ccc(-c2nnnn2-c2ccc(Cl)c(Cl)c2)cc1Cl
[7]
  IC50: > 100 µM (active)
[3]
  AC50: 3.97 µM (active)
[4]
  EC50: 8.28 µM (active)
[5]
  EC50: > 150 µM (not active)
[6]
  EC50: 9.57 µM (active)
[8]
  IC50: < 0.4 µM (not active)

## Cc1ccc2nsnc2c1S(=O)(=O)N(Cc1ccco1)Cc1cc2cccc(C)c2nc1O
[7]
  IC50: > 100 µM (active)
[9]
  IC50: > 79 µM (inactive)

## COc1ccc(Nc2cnn(-c3nc4ccccc4s3)c(=O)c2Cl)cc1
[10]
  AC50: 3.21 µM (active)
[11]
  EC50: 4.01 µM (active)
[12]
  AC50: > 380 µM (inactive)
[13]
  EC50: 0.198 µM (active)

## c1ccc(CN2CCN(c3nc(-c4ccccc4)nc(-n4ccnc4)n3)CC2)cc1
[1]
  EC50: 9.94 µM (active)
[14]
  EC50: 2.31 µM (active)
[15]
  EC50: > 60 µM (not active)
[2]
  EC50: 11.9 µM (active)

## COc1cccc(C2=NC(C)(C)NC(c3ccccc3O)C2)c1 (stereo not given)
[1]
  EC50: 11.7 µM (active)
[2]
  EC50: 12.5 µM (active)

## CC(OC(=O)c1ccc([N+](=O)[O-])o1)C(=O)NC1CCCCC1C (stereo not given)
[7]
  IC50: > 100 µM (active)

## Cc1ccc(C(=O)N2CCN(c3ccccc3Cl)CC2)cc1[N+](=O)[O-]
[10]
  AC50: 4.18 µM (active)
[8]
  IC50: > 50 µM (not active)

## CCN1CCN(Cc2ccc(NC(=O)c3ccc(C)c(NC(=O)c4csc(-c5ccncc5)n4)c3)cc2C(F)(F)F)CC1
[16]
  AC50: 33.6 µM (active)

## CCOC(=O)c1c(C)[nH]c(C)c1C(=O)COC(=O)c1cccc(S(=O)(=O)NC)c1
[7]
  IC50: > 100 µM (active)

## CCC1CCC2(CC1)NC(=O)N(CC(=O)Nc1ccc(OC)c(Cl)c1)C2=O (stereo not given)
[7]
  IC50: > 100 µM (active)

## CN(C)CCCNC(=O)C[C@H]1C[C@H](C(=O)N2CCOCC2)[C@@]2(CCC3CCCC3)c3[nH]c4cc(-c5ccco5)ccc4c3CCN2C1=O
[17]
  IC50: 5.74 µM (active)
[18]
  IC50: 5.89 µM (active)
[16]
  AC50: 11.2 µM (active)

## O=C(COc1ccc(-n2cnnn2)cc1)Nc1ccc(F)c(F)c1
[19]
  AC50: 1.42 µM (active)

## CCCCNC(=O)C[C@H]1C[C@@]2(C(=O)OC)C(=C[C@H](C(C)(C)C)O[C@@H]2C)N(Cc2ccc3c(c2)OCO3)C1=O
[20]
  AC50: 19.8 µM (active)

## C[C@]12CC[C@@H]3c4ccc(OC(=O)N(CCCl)CCCl)cc4CC[C@H]3[C@@H]1CC[C@@H]2O [ESTRAMUSTINE]
[21]
  GI50: 0.025 µM (active)
